In one data set the target is purified PARP protein (Homo sapiens, UniProt P09874). As to the kind of experiment: PARP enzyme inhibition assay. The data set is classed as biochemical.
[1] abbreviates: 20 nM purified PARP (5 nM for tight-binding inhibitors), 500 μM NAD+, 25° C., several values in one cell = repeat determinations, read-out: Inhibition Constant Ki.

Where two headings read alike, the source gives them in different places.

purified PARP protein, sequence (P09874 whole entry): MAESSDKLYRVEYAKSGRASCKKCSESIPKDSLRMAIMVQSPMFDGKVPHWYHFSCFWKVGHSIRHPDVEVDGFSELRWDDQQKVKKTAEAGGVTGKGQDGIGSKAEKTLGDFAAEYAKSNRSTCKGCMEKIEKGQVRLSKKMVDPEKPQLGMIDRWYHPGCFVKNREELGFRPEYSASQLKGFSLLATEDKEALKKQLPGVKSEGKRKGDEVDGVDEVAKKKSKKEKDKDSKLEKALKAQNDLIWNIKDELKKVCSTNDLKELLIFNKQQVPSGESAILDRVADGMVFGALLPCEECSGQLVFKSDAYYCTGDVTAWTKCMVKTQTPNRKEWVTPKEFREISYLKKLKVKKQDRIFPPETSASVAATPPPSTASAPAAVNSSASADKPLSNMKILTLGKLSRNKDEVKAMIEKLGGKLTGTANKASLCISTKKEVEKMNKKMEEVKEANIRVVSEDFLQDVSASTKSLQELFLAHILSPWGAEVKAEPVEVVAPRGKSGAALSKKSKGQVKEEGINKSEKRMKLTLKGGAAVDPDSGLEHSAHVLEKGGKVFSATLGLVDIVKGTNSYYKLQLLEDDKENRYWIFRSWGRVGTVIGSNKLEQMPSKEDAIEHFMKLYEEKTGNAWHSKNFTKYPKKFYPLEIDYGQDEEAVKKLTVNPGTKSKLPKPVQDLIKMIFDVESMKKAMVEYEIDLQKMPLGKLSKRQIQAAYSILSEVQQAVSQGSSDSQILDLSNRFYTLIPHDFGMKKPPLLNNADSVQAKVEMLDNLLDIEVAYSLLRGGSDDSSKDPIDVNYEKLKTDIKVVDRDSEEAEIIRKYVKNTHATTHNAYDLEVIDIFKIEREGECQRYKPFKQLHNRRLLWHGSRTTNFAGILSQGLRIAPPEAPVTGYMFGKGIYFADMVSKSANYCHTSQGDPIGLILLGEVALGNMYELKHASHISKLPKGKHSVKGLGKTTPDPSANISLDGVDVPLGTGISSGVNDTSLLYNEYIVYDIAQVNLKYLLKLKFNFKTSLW

By melting point is commonly meant the temperature of the solid-liquid transition. Usually Ki stands for the equilibrium dissociation constant of an inhibitor or competing ligand from its target. Consider `COC(=O)CCCc1cc2cccc3c2n1CCNC3=O` [Example 161], for which the melting point was 175 to 176 °C. Besides, the Ki on purified PARP protein (setting [1]) turned out to be 116 nM.

Turning to `O=C1NCCn2c(-c3ccc(Cl)nc3)nc3cccc1c32` [Example 118, 1-(6-Chloro-pyridin-3-yl)-8,9-dihydro-7H-2,7,9a-triaza-benzo[cd]azulen-6-one], the melting point is > 280 °C (dec.). The Ki on purified PARP protein (setting [1]) stood at 4.4 nM.

As to `O=C1NCCn2c(C(F)(F)F)nc3cccc1c32` [Example 112, 1-Trifluoromethyl-8,9-dihydro-7H-2,7,9a-triaza-benzo[cd]azulen-6-one], the melting point was 277 to 281 °C (dec.). Further, on purified PARP protein (setting [1]), the Ki was 18 nM.

In the case of `CN1CCCC(c2ccc(-c3nc4cccc5c4n3CCNC5=O)cc2)C1` (stereo not shown) [Example 144, 1-[4-(Methyl-piperidin-3-yl)-phenyl]-8,9-dihydro-7H-2,7,9a-triaza-benzo[cd]azulen-6-one], the melting point was in the range of 240 to 242 °C. On purified PARP protein (setting [1]), the Ki was determined as 7.4 nM.

As to `CS(=O)(=O)c1nc2cccc3c2n1CCNC3=O` [Example 140, 1-Methanesulfonyl-8,9-dihydro-7H-2,7,9a-triaza-benzo[cd]azulen-6-one], the melting point was > 190 °C (dec.). In addition, the Ki at purified PARP protein (setting [1]) is 6.8 nM.

As for `CCOC(=O)c1nc2cccc3c2n1CCNC3=O` [Example 74, 6-Oxo-6,7,8,9-tetrahydro-2,7,9a-triaza-benzo[cd]azulen-1-carboxylic Acid Ethyl Ester], the melting point was 237 to 239 °C (dec.). Also, the Ki at purified PARP protein (setting [1]) was found to be 33 nM.

As to `O=C1NCCn2c(C(=O)N3CCOCC3)nc3cccc1c32` [Example 113, 1-(Mompholine-4-carbonyl)-8,9-dihydro-7H-2,7,9a-triaza-benzo[cd]azulen-6-one], the melting point is 271 to 274 °C (dec.). Besides, at purified PARP protein (setting [1]), the Ki was found to be 24 nM.

As to `O=C1NCCn2c(-c3ccc(CN4CCSCC4)cc3)nc3cccc1c32` [Example 105, 1-(4-Thiomorpholin-4-ylmethyl-phenyl)-8,9-dihydro-7H-2,7,9a-triaza-benzo[cd]azulen-6-one], the melting point was 266 °C (dec.). Moreover, on purified PARP protein (setting [1]), the Ki is 6.2 nM.

Consider `O=C1NCCn2c(-c3ccc(OCCO)cc3)nc3cccc1c32` [Example 120, 1-[4-(2-Hydroxy-ethoxy)-phenyl]-8,9-dihydro-7H-2,7,9a-triaza-benzo[cd]azulen-6-one], for which the melting point was 253 to 254 °C (dec.). The Ki on purified PARP protein (setting [1]) stood at 7.3 nM.

Consider `CC(O)c1cn2c3c(cccc13)C(=O)NCC2` (stereo not shown) [Example 163, 7-(1-Hydroxy-ethyl)-3,4-dihydro-2H-[1,4]diazepino[6,7,1-hi]indol-1-one], for which the melting point fell in the range of 295 to 297 °C. For the same compound, on purified PARP protein (setting [1]), the Ki came out at 692 nM.

As to `COc1ccc(-c2cc3cccc4c3n2CCNC4=O)cc1` [Example 35, 6-(4-Methoxyphenyl)-3,4-dihydro-2H-[1,4]diazepino[6,7,1-hi]indol-1-one], the melting point was in the range of 193 to 195 °C. The Ki on purified PARP protein (setting [1]) came to 8.2 nM.

`N#CCNCc1ccc(-c2nc3cccc4c3n2CCNC4=O)cc1` [Example 102, [4-(6-Oxo-6,7,8,9-tetrahydro-2,7,9a-triaza-benzo[cd]azulen-1-yl)-benzylamino]-acetonitrile]: the melting point was 198 to 202 °C (dec.). Also, at purified PARP protein (setting [1]), the Ki is 5.6 nM.

For `CCOC(OCC)c1ccc(-c2nc3cccc4c3n2CCNC4=O)cc1` [Example 56, 1-(4-Diethoxymethyl-phenyl)-8,9-dihydro-7H-2,7,9a-triaza-benzo[cd]azulen-6-one], the melting point was in the range of 213 to 215 °C. Further, at purified PARP protein (setting [1]), the Ki was found to be 32 nM.

`O=C1NCCn2cc(C(O)c3ccccc3)c3cccc1c32` (stereo not shown) [Example 166, 7-(1-Hydroxy-1-phenyl-methyl)-3,4-dihydro-2H-[1,4]diazepino[6,7,1-hi]indol-1-one] displayed a melting point of 178 to 180 °C. For the same compound, the affinity at purified PARP protein (Inhibition Constant Ki (nM)) corresponds to a Ki of 380 nM.

Regarding `NC(=O)c1ccc(Oc2ccc(-c3nc4cccc5c4n3CCNC5=O)cn2)cc1` [Example 116, 4-[5-(6-Oxo-6,7,8,9-tetrahydro-2,7,9a-triaza-benzo[cd]azulen-1-yl)-pyridin-2-yloxy]-benzamide], the melting point is 244 to 248 °C (dec.). For the same compound, the Ki at purified PARP protein (setting [1]) was 5.2 nM.

Turning to `O=C1NCCn2c(-c3ccc(-c4c[nH]cn4)cc3)nc3cccc1c32` [Example 147, 1-[4-(1H-Imidazol-4-yl)-phenyl]-8,9-dihydro-7H-2,7,9a-triaza-benzo[cd]azulen-6-one], the melting point was > 198 °C (dec.). Moreover, the Ki at purified PARP protein (setting [1]) was determined as 4 nM.

With `O=C1NCCn2c(-c3ccc(=O)n(Cc4ccccc4)c3)nc3cccc1c32` [Example 114, 1-(1-Benzyl-6-oxo-1,6-dihydro-pyridin-3-yl)-8,9-dihydro-7H-2,7,9a-triaza-benzo[cd]azulen-6-one], the melting point was 265 to 269 °C (dec.). Besides, on purified PARP protein (setting [1]), the Ki was determined as 9.9 nM.

Take `O=C1NCCn2c(-c3ccc(-c4ccncc4)cc3)nc3cccc1c32` [Example 135, 1-(4-Pyridin-4-yl-phenyl)-8,9-dihydro-7H-2,7,9a-triaza-benzo[cd]azulen-6-one]: the melting point is 370 to 372 °C (dec.). Also, on purified PARP protein (setting [1]), the Ki amounted to 3.8 nM.

Consider `O=C1NCCn2c(C(=O)NCc3ccccc3)nc3cccc1c32` [Example 110, 6-Oxo-6,7,8,9-tetrahydro-2,7,9a-triaza-benzo[cd]azulen-1-carboxylic Acid Benzylamide], for which the melting point lay within 247 to 250 °C. Besides, the Ki at purified PARP protein (setting [1]) is 18 nM.

The compound `O=C1NCCn2c(-c3ccc(CO)cc3)nc3cc(F)cc1c32` [Example 97, 4-Fluoro-1-(hydroxymethyl-phenyl)-8,9-dihydro-7H-2,7,9a-triaza-benzo[cd]azulen-6-one] had a melting point of 273 to 275 °C. Further, the Ki at purified PARP protein (setting [1]) was 1.6 nM.

Turning to `CCOC(OCC)c1ccc(-c2nc3cc(F)cc4c3n2CCNC4=O)cc1` [Example 79, 1-(4-Diethoxymethyl-phenyl)-4-fluoro-8,9-dihydro-7H-2,7,9a-triaza-benzo[cd]azulen-6-one], the melting point was 219 to 221 °C. Also, at purified PARP protein (setting [1]), the Ki amounted to 11 nM.

Consider `COc1ccc(Oc2cccc(-c3nc4cccc5c4n3CCNC5=O)c2)cc1` [Example 64, 1-[3-(4-Methoxyphenoxy)-phenyl]-8,9-dihydro-7H-2,7,9a-triaza-benzo[cd]azulen-6-one], for which the melting point lay in the range of 196 to 198 °C. At purified PARP protein (setting [1]), the Ki was determined as 6.2 nM.

In the case of `N#Cc1ccc(Oc2ccc(-c3nc4cccc5c4n3CCNC5=O)cn2)cc1` [Example 109, 4-[5-(6-Oxo-6,7,8,9-tetrahydro-2,7,9a-triaza-benzo[cd]azulen-1-yl)-pyridin-2-yloxy]-benzonitrile], the melting point is 281 to 288 °C (dec.). The Ki at purified PARP protein (setting [1]) was determined as 5.5 nM.

Regarding `Cn1nnc(-c2ccc(-c3nc4cccc5c4n3CCNC5=O)cc2)n1` [Example 133, 1-[4-(2-Methyl-2H-tetrazol-5-yl)-phenyl]-8,9-dihydro-7H-2,7,9a-triaza-benzo[cd]azulen-6-one], the melting point is 280 °C (dec.). Also, the Ki on purified PARP protein (setting [1]) is 6.9 nM.

In the case of `CC(=O)c1c(-c2ccc(F)cc2)n2c3c(cccc13)C(=O)NCC2` [Example 93, 7-Acetyl-6-(4-fluoro-phenyl)-3,4-dihydro-2H-[1,4]diazepino[6,7,1-hi]indol-1-one], the melting point is 275 to 276 °C. Moreover, on purified PARP protein (Inhibition Constant Ki (nM), 20 nM purified PARP (5 nM for tight-binding inhibitors), 500 μM NAD+, 25° C., several values in one cell = repeat determinations), the Ki amounted to 306 nM.

With `O=C1NCCn2c(-c3ccc(Sc4ccc(Cl)cc4)nc3)nc3cccc1c32` [Example 108, 1-[6-(4-Chloro-phenylsulfanyl)-pyridin-3-yl]-8,9-dihydro-7H-2,7,9a-triaza-benzo[cd]azulen-6-one], the melting point was 280 to 284 °C (dec.). In addition, the Ki on purified PARP protein (setting [1]) was 6 nM.

Regarding `O=C1NCCn2c(-c3ccnc(Cl)c3)nc3cccc1c32` [Example 15, 1-(2-Chloropyridin-4-yl)-8,9-dihydro-7H-2,7,9a-triaza-benzo[cd]azulen-6-one], the melting point is 265 °C (dec.). In addition, the Ki at purified PARP protein (setting [1]) came to 12.1 nM.

In turn, `O=C1NCCn2c(-c3ccc(OCCN4CCCC4)cc3)nc3cccc1c32` [Example 123, 1-[4-(2-Pyrrolidin-1-yl-ethoxy)-phenyl]-8,9-dihydro-7H-2,7,9a-triaza-benzo[cd]azulen-6-one] registered a melting point of 172 to 175 °C. Besides, the inhibition constant (Ki) at purified PARP protein (setting [1]) came out at 9 nM.

As to `CC(=O)c1cn2c3c(cccc13)C(=O)NCC2` [Example 164, 7-Acetyl-3,4-dihydro-2H-[1,4]diazepino[6,7,1-hi]indol-1-one], the melting point lay within 285 to 287 °C. Besides, the Ki on purified PARP protein (setting [1]) was found to be 606 nM.
